Data published in patent US4704403A, “3-(2,2,2-trisubstituted hydrazinium) propionates” (priority 1983, dated 1987).

Tests used:
[1] = tested on: spontaneously hypertensive rats of the Akamoto-Aoki line; assay: Systolic arterial pressure of spontaneously hypertensive rats upon a repeated peroral administration; format: in vivo
Procedure: Thus, after a four-days course of administration (once a day, per os) of the compounds according to the present invention an essential reduction of the arterial pressure in the test animals is observed which is not returned to the initial level even an expiration of four days after discontinuation of the preparation administration, whereas the hypotensive effect of nifedipine is manifested for only 8 hours.

[2] = tested on: spontaneously hypertensive rats of the Akamoto-Aoki line; assay: Hypotensive activity on spontaneously hypertensive rats at a single peroral administration; format: in vivo; details: for Systolic arterial pressure: ethyl 40 mg/kg (initial 198), benzyl 40 mg/kg (initial 196)
[3] = tested on: hypertensive male rats of the Akamoto-Aoki line; assay: Variation of arterial pressure upon intraperitoneal administration to hypertensive rats; format: in vivo
Procedure: The study of hypotensive properties of the compounds of this invention has been carried out of hypertensive male rats of the Akamoto-Aoki line aged 25-30 weeks. The animals were divided into groups (7-10 rats in each) and for 2 weeks before the beginning of the experiment they were subjected to an every-day training for adaptation to the unit for measurements of the arterial pressure. The systolic and diastolic arterial pressure were measured indirectly on the tail artery. The level of the arterial pressure prior to administration of the test compounds was measured by way of a triple determination thereof--2 days, one day and right before the administration of the preparation. The compounds were administered intraperitoneally in the form of a 2.5% aqueous solution or a 2.5% suspension in Twin-80 in the dose of 50 mg/kg. The measurement of the arterial pressure was effected 30 minutes, 1, 2, 3 and 4 hours and in some cases 24 hours after the administration of the preparation. For a number of compounds featuring a high efficiency, also determined was the dose causing reduction of the arterial pressure by 30% as compared with the starting level (ED30). The statistical processing of the data obtained was carried out using the Student certainty criterion.

[4] = Acute toxicity upon intraperitoneal administration to white mice; format: in vivo; details: mouse, in vivo, ip, 14 days observation, average values with confidential limits at P=0.05
Procedure: (§1) The acute toxicity of the compounds according to the present invention was studied on white mice of both sexes with a mass of 20-25 g. A saturated aqueous solution of the compounds or a suspension in Tween-80 was administered to the animals intraperitoneally. The observation over the animals was carried out for 14 days. The results obtained were processed following the Litchfield-Wilkoxon method. As it follows from the data shown in Table 5 hereinbelow, the studied compounds have a very low acute toxicity, thus providing a large spectrum of the therapeutic effect.

white mice = assay: as above; format: in vivo; details: i.p.
Procedure: as §1

[5] = tested on: hemodynamic effects of neoepinephrine; assay: Effect on vegetative responses: neoepinephrine; format: in vivo, cats; details: neoepinephrine 0.2 μg/kg
Procedure: (§2) The effect of the compounds according to the present invention on the arterial pressure and vegetative responses has been studied in acute experiments on cats with a mass of 2.8-4.0 kg narcotized by α-glucochloralose (90 mg/kg) and urethane (100 mg/kg intraperitoneally).
(§3) The arterial pressure in the common carotid artery, breathing and electrocardiogram of the second standard lead were recorded.
(§4) The effect of the compounds according to the present invention on hemodynamic effects of acetylcholine (0.1 μg/kg) neoepinephrine (0.2 μg/kg), noradrenaline (1 μg/kg) and histamine (1.5 μg/kg) was also studied. In some experiments instead of neoepinephrine and noradrenaline adrenaline was used (1 μg/kg). The peripheral part of the vagus nerve was irritated by supromaximum square pulses of the frequency of 30 Hz and duration of 0.1 ms.

[6] = tested on: arrhythmia caused by introduction of calcium chloride; assay: Antiarrhythmic activity on the model of arrhythmia caused by calcium chloride (antagonism towards calcium); format: in vivo, mice; details: for Dose of calcium chloride causing arrhythmia: control 85.0; for Dose of calcium chloride causing heart arrest: control 100.0
Procedure: In experiments on white mice with a mass of 18-25 g narcotized with urethane an electrocardiogram was recorded in the second standard lead. A 2% solution of calcium chloride was introduced into the tail vein at a constant rate (0.01 ml for 2 seconds). The dose of calcium chloride causing arrhythmia and the dose causing heart arrest were determined. In experimental groups the test compounds were administered 20-40 minutes prior to the beginning of the experiment intraperitoneally.

Angiotension = assay: Effect on vegetative responses: angiotensin; format: in vivo, cats; details: dose 5 (unit not given)
[7] = tested on: adrenaline-caused arrhythmia; assay: Adrenaline-caused arrhythmia in narcotized guinea pigs; format: in vivo
Procedure: A further study of the antiarrhythmic activity of the compounds according to the present invention was connected with the determination of their effect on experimental arrhythmia induced by adrenaline.
Guinea pigs of both sexes with a mass of 400-700 g were narcotized with urethane (1,500 mg/kg intraperitoneally) The standard second-lead electrocardiogram was recorded. Arrhythmia was caused by a rapid injection (intravenously) of adrenaline in the dose of […]. To find out the protective antiarrhythmia effect of the compounds according to the present invention, the number of animals in which the total number of ectopic contractions was reduced by 50% and more as compared to the control experiments was recorded. […] The results obtained in this study of the antiarrhythmic properties of some of the compounds according to the present invention and novocainamide on the adrenaline model of arrhythmia are shown in Table 7.

[8] = tested on: hemodynamic effects of acetylcholine; assay: Effect on vegetative responses: acetylcholine; format: in vivo, cats; details: dose "-10" [sic] (unit not given); acetylcholine 0.1 μg/kg
Procedure: as §2, §3, §4

arterial pressure = assay: Effect on the arterial pressure in narcotized cats; format: in vivo
Procedure: as §2, §3, §4

[9] = tested on: hemodynamic effects of noradrenaline; assay: Effect on vegetative responses: noradrenaline; format: in vivo, cats; details: noradrenaline 1 μg/kg
Procedure: as §2, §3, §4

[10] = after four-days p.o. course, benzyl 40 mg/kg, allyl 50 mg/kg, nifedipine dose not given
[11] = p.o. once a day, benzyl 40 mg/kg, allyl 50 mg/kg, nifedipine dose not given
[12] = p.o., benzyl 40 mg/kg, allyl 50 mg/kg, nifedipine dose not given
[13] = 3 hours after single p.o., allyl 50 mg/kg (initial 184)
[14] = 3 hours after single p.o., ethyl 40, allyl 50, benzyl 40 mg/kg
[15] = 5 hours after single p.o., allyl 50 mg/kg (initial 184)
[16] = 5 hours after single p.o., ethyl 40, allyl 50, benzyl 40 mg/kg
[17] = 24 hours after single p.o., allyl 50 mg/kg (initial 184)
[18] = 24 hours after single p.o., ethyl 40, allyl 50, benzyl 40 mg/kg
[19] = 30 minutes, 50 mg/kg i.p. (nifedipine 1 mg/kg i.p.)
[20] = 1 hour, 50 mg/kg i.p. (nifedipine 1 mg/kg i.p.)
[21] = 2 hours, 50 mg/kg i.p. (nifedipine 1 mg/kg i.p.)
[22] = 4 hours, 50 mg/kg i.p. (nifedipine 1 mg/kg i.p.)
[23] = dose "-10" [sic] (unit not given)

C=CC[N+](C)(C)NCCC(=O)[O-] [3-(2,2-dimethyl-2-allylhydrazinium)propionate semihydrate]
Systolic arterial pressure, 5th day [1, 10]: 126 mm Hg | Systolic arterial pressure, 8th day [1, 10]: 168 mm Hg | Systolic arterial pressure, 10th day [1, 10]: 175 mm Hg | Systolic arterial pressure, 2nd day after administration ([1]; p.o. once a day, allyl 50 mg/kg, nifedipine dose not given): 132.8 mm Hg | Systolic arterial pressure, 1st day after administration ([1]; p.o. once a day, benzyl 40 mg/kg (initial 195.8), allyl 50 mg/kg (initial 176.6), nifedipine dose not given (initial 184.0)): 150.6 mm Hg | Systolic arterial pressure, 2nd day before administration [1, 11]: 166.8 mm Hg | Systolic arterial pressure, 3rd day after administration [1, 11]: 118 mm Hg | Systolic arterial pressure, 4th day after administration [1, 11]: 118.6 mm Hg | Systolic arterial pressure, 4th day before administration [1, 11]: 129 mm Hg | Percent in parentheses (change of systolic pressure from initial), 2nd day after administration ([1]; p.o., allyl 50 mg/kg, nifedipine dose not given): 25% | Percent in parentheses (change of systolic pressure from initial), 1st day after administration [1, 12]: 15% | Percent in parentheses (change of systolic pressure from initial), 2nd day before administration [1, 12]: 6% | Percent in parentheses (change of systolic pressure from initial), 3rd day after administration [1, 12]: 33% | Percent in parentheses (change of systolic pressure from initial), 4th day after administration [1, 12]: 33% | Percent in parentheses (change of systolic pressure from initial), 4th day before administration [1, 12]: 27% | Percent in parentheses (change of systolic pressure from initial), 5th day [1, 12]: 29% | Percent in parentheses (change of systolic pressure from initial), 8th day [1, 12]: 5% | Systolic arterial pressure [2, 13]: 153 mm Hg | Systolic arterial pressure, percent in parentheses (decrease from initial) [2, 14]: 17% | Systolic arterial pressure [2, 15]: 155 mm Hg | Systolic arterial pressure, percent in parentheses (decrease from initial) [2, 16]: 16% | Systolic arterial pressure [2, 17]: 170 mm Hg | Systolic arterial pressure, percent in parentheses (decrease from initial) [2, 18]: 8% | Average variation of the diastolic arterial pressure [3, 19]: -10 % of the initial | Average variation of the systolic arterial pressure [3, 19]: -12 % of the initial | Average variation of the diastolic arterial pressure [3, 20]: -23 % of the initial | Average variation of the systolic arterial pressure [3, 20]: -12 % of the initial | Average variation of the diastolic arterial pressure [3, 21]: -29 % of the initial | Average variation of the systolic arterial pressure [3, 21]: -18 % of the initial | Average variation of the diastolic arterial pressure [3, 22]: -31 % of the initial | Average variation of the systolic arterial pressure [3, 22]: -14 % of the initial | Average variation of the diastolic arterial pressure ([3]; 24 hours, 50 mg/kg i.p.): -7 % of the initial | Average variation of the systolic arterial pressure ([3]; 24 hours, 50 mg/kg i.p.): -3 % of the initial | LD50 at 336 h [4]: 10600 mg/kg | Relative toxicity with respect to quinidine (LD50 / LD50 of quinidine) (white mice): 67.9 | Hemodynamic effect, Neoepinephrine ([5]; dose 5 (unit not given)): -20% | Dose of calcium chloride causing arrhythmia ([6]; compound dose 5 mg/kg i.p.): 99.6 | Dose of calcium chloride causing heart arrest ([6]; compound dose 5 mg/kg i.p.): 118.0 | Dose of calcium chloride causing arrhythmia ([6]; compound dose 25 mg/kg i.p.): 95.2 | Dose of calcium chloride causing heart arrest ([6]; compound dose 25 mg/kg i.p.): 103.0 | Hemodynamic effect, Angiotension (Angiotension): -70%

CC[N+](C)(C)NCCC(=O)[O-] [3-(2,2-dimethyl-2-ethylhydrazinium)propionate monohydrate]
Systolic arterial pressure ([2]; 1 hour after single p.o.): 185 mm Hg | Systolic arterial pressure, percent in parentheses (decrease from initial) ([2]; 1 hour after single p.o., ethyl 40 mg/kg, benzyl 40 mg/kg): 7% | Systolic arterial pressure [2, 13]: 190 mm Hg | Systolic arterial pressure, percent in parentheses (decrease from initial) [2, 14]: 4% | Systolic arterial pressure [2, 15]: 193 mm Hg | Systolic arterial pressure, percent in parentheses (decrease from initial) [2, 16]: 3% | Systolic arterial pressure [2, 17]: 191 mm Hg | Systolic arterial pressure, percent in parentheses (decrease from initial) [2, 18]: 4% | Average variation of the diastolic arterial pressure [3, 19]: -2 % of the initial | Average variation of the systolic arterial pressure [3, 19]: -5 % of the initial | Average variation of the diastolic arterial pressure [3, 20]: -17 % of the initial | Average variation of the systolic arterial pressure [3, 20]: -11 % of the initial | Average variation of the diastolic arterial pressure [3, 21]: -22 % of the initial | Average variation of the systolic arterial pressure [3, 21]: -13 % of the initial | Average variation of the diastolic arterial pressure [3, 22]: -23 % of the initial | Average variation of the systolic arterial pressure [3, 22]: -18 % of the initial | Average variation of the diastolic arterial pressure ([3]; 24 hours, 50 mg/kg i.p.): -25 % of the initial | Average variation of the systolic arterial pressure ([3]; 24 hours, 50 mg/kg i.p.): -18 % of the initial | LD50 at 336 h [4]: 2300 mg/kg | Relative toxicity with respect to quinidine (LD50 / LD50 of quinidine) (white mice): 14.7 | Efficiency (animals with ectopic contractions reduced by 50% and more) ([7]; 3.0 mg/kg intravenously): 1/4 | Efficiency (animals with ectopic contractions reduced by 50% and more) ([7]; 10.0 mg/kg intravenously): 2/4 | Efficiency (animals with ectopic contractions reduced by 50% and more) ([7]; 20.0 mg/kg intravenously): 4/5 | ED50 ([7]; Cavia porcellus, iv, intravenously, dose giving antiarrhythmic effect in 50% of the experiments): 8.2 mg/kg | Dose of calcium chloride causing arrhythmia ([6]; compound dose 5 mg/kg i.p.): 83.0 | Dose of calcium chloride causing heart arrest ([6]; compound dose 5 mg/kg i.p.): 95.0 | Dose of calcium chloride causing arrhythmia ([6]; compound dose 25 mg/kg i.p.): 91.0 | Dose of calcium chloride causing heart arrest ([6]; compound dose 25 mg/kg i.p.): 98.0

CCCCCCCCCCCCCCCC[N+](C)(C)NCCC(=O)[O-] [3-(2,2-dimethyl-2-hexadecylhydrazinium)propionate]
Variation of the effect of acetylcholine [8]: -10% | Variation of arterial pressure (arterial pressure; dose 3 (unit not given)): -5% | Variation of arterial pressure (arterial pressure; [23]): -3% | LD50 at 336 h [4]: 1450 mg/kg | Relative toxicity with respect to quinidine (LD50 / LD50 of quinidine) (white mice): 9.3 | Hemodynamic effect, Noradrenaline ([9]; dose 3 (unit not given)): -15% | Hemodynamic effect, Noradrenaline [9, 23]: -80% | Hemodynamic effect, Neoepinephrine ([5]; dose 3 (unit not given)): -10% | Hemodynamic effect, Neoepinephrine [5, 23]: -30% | Dose of calcium chloride causing arrhythmia ([6]; compound dose 5 mg/kg i.p.): 130.5 | Dose of calcium chloride causing heart arrest ([6]; compound dose 5 mg/kg i.p.): 140.6 | Dose of calcium chloride causing arrhythmia ([6]; compound dose 25 mg/kg i.p.): 102.7 | Dose of calcium chloride causing heart arrest ([6]; compound dose 25 mg/kg i.p.): 124.5
